Source: patent US10538555B2, “Macrocyclic inhibitors of the PD-1/PD-L1 and CD80(B7-1)/PD-L1 protein/protein interactions” (BRISTOL-MYERS SQUIBB COMPANY, priority 2014, dated 2020)
pIC50: −log10 of the molar value. Read-outs that look alike come from different tables or passages of the source. Where a SMILES comes first, the peptide text is derived from it. Bridges are numbered along the chain shown (N, C = ends). [ ]: non-standard residue; d: D form. Hyp = O=C(O)[C@@H]1C[C@@H](O)CN1; NMeNle = CCCC[C@H](NC)C(=O)O; NMeA = CN[C@@H](C)C(=O)O; Dab = NCC[C@H](N)C(=O)O; Dap = NC[C@H](N)C(=O)O

Target: T1, Human PD-L1/PD-1 (Homo sapiens, UniProt Q9NZQ7)
T1 construct: TVMV protease cleavage site (C); made in house; host or cells: HEK293T cells
Assay: HTRF Human PD-L1/PD-1 binding assay (PD-1-Ig/PD-L1-His)
Conditions: PD-L1-His 10 nM, PD-1-Ig 20 nM
How it was run: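 Soluble HEK293T-expressed proteins: hPD-L1-His 10 nM, hPD-1-Ig 20 nM final. Cpd + PD-L1 15 min, + PD-1 15 min, + Eu anti-Ig 1 nM/APC anti-His 20 nM 30 min. Buffer dPBS, 0.1% BSA, 0.05% Tween-20. TR-FRET 665/620.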

[1] = class symbol, read-out: HTRF Human PD-L1/PD-1 Binding Assay IC50 Range

T1 sequence (Q9NZQ7 with tags, fused parts or gaps): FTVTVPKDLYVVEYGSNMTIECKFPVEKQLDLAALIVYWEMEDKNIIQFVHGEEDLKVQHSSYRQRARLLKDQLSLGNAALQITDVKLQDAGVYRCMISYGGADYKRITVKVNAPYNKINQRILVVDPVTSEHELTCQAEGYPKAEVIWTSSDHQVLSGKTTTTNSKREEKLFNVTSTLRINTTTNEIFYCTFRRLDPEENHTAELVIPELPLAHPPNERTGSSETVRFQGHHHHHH

SMILES	pIC50 [1]	pIC50 (read-out: HTRF Human PD-L1/PD-1 Binding Assay IC50)
CCCC[C@H]1C(=O)N(C)[C@@H](CCCC)C(=O)N[C@@H](CCC(=O)O)C(=O)N[C@H](C(=O)NCC(N)=O)CSCC(=O)N[C@@H](Cc2ccc(OC)cc2)C(=O)N(C)[C@@H](C)C(=O)N[C@@H](CCN)C(=O)N2CCC[C@H]2C(=O)N[C@@H](CN)C(=O)N[C@@H](CCC(=O)O)C(=O)N2C[C@H](O)C[C@H]2C(=O)N[C@@H](Cc2c[nH]c3ccccc23)C(=O)N[C@@H](CCN)C(=O)N[C@@H](Cc2c[nH]c3ccccc23)C(=O)N1C [Example 7112] ({CH2CO}-Y(Me)[NMeA][Dab]P[Dap]E[Hyp]W[Dab]W[NMeNle][NMeNle]ECG-NH2; thioether N-14)	8.00 to 9.00	
CCCC[C@H]1C(=O)N(C)[C@@H](CCCC)C(=O)N[C@@H](CCC(=O)O)C(=O)N[C@H](C(=O)NCC(N)=O)CSCC(=O)N[C@@H](Cc2ccc(OC)cc2)C(=O)N(C)[C@@H](C)C(=O)N[C@@H](CC(=O)O)C(=O)N2CCC[C@H]2C(=O)N[C@@H](CN)C(=O)N[C@@H](CCC(=O)O)C(=O)N2C[C@H](O)C[C@H]2C(=O)N[C@@H](Cc2c[nH]c3ccccc23)C(=O)N[C@@H](CCN)C(=O)N[C@@H](Cc2c[nH]c3ccccc23)C(=O)N1C [Example 7113] ({CH2CO}-Y(Me)[NMeA]DP[Dap]E[Hyp]W[Dab]W[NMeNle][NMeNle]ECG-NH2; thioether N-14)	8.00 to 9.00	
CCCC[C@H]1C(=O)N(C)[C@@H](CCCC)C(=O)N[C@@H](CCC(=O)O)C(=O)N[C@H](C(=O)NCC(N)=O)CSCC(=O)N[C@@H](Cc2ccc(OC)cc2)C(=O)N(C)[C@@H](C)C(=O)N[C@@H](CCN)C(=O)N2CCC[C@H]2C(=O)N[C@@H](CN)C(=O)N[C@@H](CCC(=O)O)C(=O)N2C[C@H](O)C[C@H]2C(=O)N[C@@H](Cc2c[nH]c3ccccc23)C(=O)N[C@@H](CC(=O)O)C(=O)N[C@@H](Cc2c[nH]c3ccccc23)C(=O)N1C [Example 7114] ({CH2CO}-Y(Me)[NMeA][Dab]P[Dap]E[Hyp]WDW[NMeNle][NMeNle]ECG-NH2; thioether N-14)	6.00 to 7.00	
CCCC[C@H]1C(=O)N(C)[C@@H](CCCC)C(=O)N[C@@H](CCC(=O)O)C(=O)N[C@H](C(=O)NCC(N)=O)CSCC(=O)N[C@@H](Cc2ccc(OC)cc2)C(=O)N(C)[C@@H](C)C(=O)N[C@@H](CC(N)=O)C(=O)N2CCC[C@H]2C(=O)N[C@@H](Cc2cnc[nH]2)C(=O)N[C@@H](CCCCN)C(=O)N2C[C@H](O)C[C@H]2C(=O)N[C@@H](Cc2c[nH]c3ccccc23)C(=O)N[C@@H](CC(=O)O)C(=O)N[C@@H](Cc2c[nH]c3ccccc23)C(=O)N1C [Example 7115] ({CH2CO}-Y(Me)[NMeA]NPHK[Hyp]WDW[NMeNle][NMeNle]ECG-NH2; thioether N-14)	6.00 to 7.00	
CCCC[C@H]1C(=O)N(C)[C@@H](CCCC)C(=O)N[C@@H](CCC(=O)O)C(=O)N[C@H](C(=O)NCC(N)=O)CSCC(=O)N[C@@H](Cc2ccc(OC)cc2)C(=O)N(C)[C@@H](C)C(=O)N[C@@H](CCN)C(=O)N2CCC[C@H]2C(=O)N[C@@H](CN)C(=O)N[C@@H](CCCCN)C(=O)N2C[C@H](O)C[C@H]2C(=O)N[C@@H](Cc2c[nH]c3ccccc23)C(=O)N[C@@H](CC(=O)O)C(=O)N[C@@H](Cc2c[nH]c3ccccc23)C(=O)N1C [Example 7116] ({CH2CO}-Y(Me)[NMeA][Dab]P[Dap]K[Hyp]WDW[NMeNle][NMeNle]ECG-NH2; thioether N-14)		6.00
CCCC[C@H]1C(=O)N(C)[C@@H](CCCC)C(=O)N[C@@H](CCC(=O)O)C(=O)N[C@H](C(=O)NCC(N)=O)CSCC(=O)N[C@@H](Cc2ccc(OC)cc2)C(=O)N(C)[C@@H](C)C(=O)N[C@@H](CC(N)=O)C(=O)N2CCC[C@H]2C(=O)N[C@@H](CN)C(=O)N[C@@H](CCC(=O)O)C(=O)N2C[C@H](O)C[C@H]2C(=O)N[C@@H](Cc2c[nH]c3ccccc23)C(=O)N[C@@H](CC(=O)O)C(=O)N[C@@H](Cc2c[nH]c3ccccc23)C(=O)N1C [Example 7117] ({CH2CO}-Y(Me)[NMeA]NP[Dap]E[Hyp]WDW[NMeNle][NMeNle]ECG-NH2; thioether N-14)	7.00 to 8.00	
CCCC[C@H]1C(=O)N(C)[C@@H](CCCC)C(=O)N[C@@H](CCC(=O)O)C(=O)N[C@H](C(=O)NCC(N)=O)CSCC(=O)N[C@@H](Cc2ccc(OC)cc2)C(=O)N(C)[C@@H](C)C(=O)N[C@@H](CC(N)=O)C(=O)N2CCC[C@H]2C(=O)N[C@@H](Cc2cnc[nH]2)C(=O)N[C@@H](CCCCN)C(=O)N2C[C@H](O)C[C@H]2C(=O)N[C@@H](Cc2c[nH]c3ccccc23)C(=O)N[C@@H](CCN)C(=O)N[C@@H](Cc2c[nH]c3ccccc23)C(=O)N1C [Example 7118] ({CH2CO}-Y(Me)[NMeA]NPHK[Hyp]W[Dab]W[NMeNle][NMeNle]ECG-NH2; thioether N-14)	8.00 to 9.00	
CCCC[C@H]1C(=O)N(C)[C@@H](CCCC)C(=O)N[C@@H](CCC(=O)O)C(=O)N[C@H](C(=O)NCC(N)=O)CSCC(=O)N[C@@H](Cc2ccc(OC)cc2)C(=O)N(C)[C@@H](C)C(=O)N[C@@H](CC(=O)O)C(=O)N2CCC[C@H]2C(=O)N[C@@H](Cc2cnc[nH]2)C(=O)N[C@@H](CCCCN)C(=O)N2C[C@H](O)C[C@H]2C(=O)N[C@@H](Cc2c[nH]c3ccccc23)C(=O)N[C@@H](CCN)C(=O)N[C@@H](Cc2c[nH]c3ccccc23)C(=O)N1C [Example 7119] ({CH2CO}-Y(Me)[NMeA]DPHK[Hyp]W[Dab]W[NMeNle][NMeNle]ECG-NH2; thioether N-14)	8.00 to 9.00	
CCCC[C@H]1C(=O)N(C)[C@@H](CCCC)C(=O)N[C@@H](CCC(=O)O)C(=O)N[C@H](C(=O)NCC(N)=O)CSCC(=O)N[C@@H](Cc2ccc(OC)cc2)C(=O)N(C)[C@@H](C)C(=O)N[C@@H](CCN)C(=O)N2CCC[C@H]2C(=O)N[C@@H](Cc2cnc[nH]2)C(=O)N[C@@H](CCCCN)C(=O)N2C[C@H](O)C[C@H]2C(=O)N[C@@H](Cc2c[nH]c3ccccc23)C(=O)N[C@@H](CCN)C(=O)N[C@@H](Cc2c[nH]c3ccccc23)C(=O)N1C [Example 7120] ({CH2CO}-Y(Me)[NMeA][Dab]PHK[Hyp]W[Dab]W[NMeNle][NMeNle]ECG-NH2; thioether N-14)	8.00 to 9.00	
CCCC[C@H]1C(=O)N(C)[C@@H](CCCC)C(=O)N[C@@H](CCC(=O)O)C(=O)N[C@H](C(=O)NCC(N)=O)CSCC(=O)N[C@@H](Cc2ccc(OC)cc2)C(=O)N(C)[C@@H](C)C(=O)N[C@@H](CC(N)=O)C(=O)N2CCC[C@H]2C(=O)N[C@@H](CN)C(=O)N[C@@H](CCCCN)C(=O)N2C[C@H](O)C[C@H]2C(=O)N[C@@H](Cc2c[nH]c3ccccc23)C(=O)N[C@@H](CCN)C(=O)N[C@@H](Cc2c[nH]c3ccccc23)C(=O)N1C [Example 7121] ({CH2CO}-Y(Me)[NMeA]NP[Dap]K[Hyp]W[Dab]W[NMeNle][NMeNle]ECG-NH2; thioether N-14)	8.00 to 9.00	
CCCC[C@H]1C(=O)N(C)[C@@H](CCCC)C(=O)N[C@@H](CCC(=O)O)C(=O)N[C@H](C(=O)NCC(N)=O)CSCC(=O)N[C@@H](Cc2ccc(OC)cc2)C(=O)N(C)[C@@H](C)C(=O)N[C@@H](CC(=O)O)C(=O)N2CCC[C@H]2C(=O)N[C@@H](CN)C(=O)N[C@@H](CCCCN)C(=O)N2C[C@H](O)C[C@H]2C(=O)N[C@@H](Cc2c[nH]c3ccccc23)C(=O)N[C@@H](CCN)C(=O)N[C@@H](Cc2c[nH]c3ccccc23)C(=O)N1C [Example 7122] ({CH2CO}-Y(Me)[NMeA]DP[Dap]K[Hyp]W[Dab]W[NMeNle][NMeNle]ECG-NH2; thioether N-14)	8.00 to 9.00	
CCCC[C@H]1C(=O)N(C)[C@@H](CCCC)C(=O)N[C@@H](CCC(=O)O)C(=O)N[C@H](C(=O)NCC(N)=O)CSCC(=O)N[C@@H](Cc2ccc(OC)cc2)C(=O)N(C)[C@@H](C)C(=O)N[C@@H](CCN)C(=O)N2CCC[C@H]2C(=O)N[C@@H](CN)C(=O)N[C@@H](CCCCN)C(=O)N2C[C@H](O)C[C@H]2C(=O)N[C@@H](Cc2c[nH]c3ccccc23)C(=O)N[C@@H](CCN)C(=O)N[C@@H](Cc2c[nH]c3ccccc23)C(=O)N1C [Example 7123] ({CH2CO}-Y(Me)[NMeA][Dab]P[Dap]K[Hyp]W[Dab]W[NMeNle][NMeNle]ECG-NH2; thioether N-14)	7.00 to 8.00	
CCCC[C@H]1C(=O)N(C)[C@@H](CCCC)C(=O)N[C@@H](CCC(=O)O)C(=O)N[C@H](C(=O)NCC(N)=O)CSCC(=O)N[C@@H](Cc2ccc(OC)cc2)C(=O)N(C)[C@@H](C)C(=O)N[C@@H](CC(N)=O)C(=O)N2CCC[C@H]2C(=O)N[C@@H](Cc2cnc[nH]2)C(=O)N[C@@H](CCC(=O)O)C(=O)N2C[C@H](O)C[C@H]2C(=O)N[C@@H](Cc2c[nH]c3ccccc23)C(=O)N[C@@H](CC(=O)O)C(=O)N[C@@H](Cc2c[nH]c3ccccc23)C(=O)N1C [Example 7124] ({CH2CO}-Y(Me)[NMeA]NPHE[Hyp]WDW[NMeNle][NMeNle]ECG-NH2; thioether N-14)	7.00 to 8.00	
CCCC[C@H]1C(=O)N(C)[C@@H](CCCC)C(=O)N[C@@H](CCC(=O)O)C(=O)N[C@H](C(=O)NCC(N)=O)CSCC(=O)N[C@@H](Cc2ccc(OC)cc2)C(=O)N(C)[C@@H](C)C(=O)N[C@@H](CC(=O)O)C(=O)N2CCC[C@H]2C(=O)N[C@@H](Cc2cnc[nH]2)C(=O)N[C@@H](CCC(=O)O)C(=O)N2C[C@H](O)C[C@H]2C(=O)N[C@@H](Cc2c[nH]c3ccccc23)C(=O)N[C@@H](CC(=O)O)C(=O)N[C@@H](Cc2c[nH]c3ccccc23)C(=O)N1C [Example 7125] ({CH2CO}-Y(Me)[NMeA]DPHE[Hyp]WDW[NMeNle][NMeNle]ECG-NH2; thioether N-14)	7.00 to 8.00	
CCCC[C@H]1C(=O)N(C)[C@@H](CCCC)C(=O)N[C@@H](CCC(=O)O)C(=O)N[C@H](C(=O)NCC(N)=O)CSCC(=O)N[C@@H](Cc2ccc(OC)cc2)C(=O)N(C)[C@@H](C)C(=O)N[C@@H](CCN)C(=O)N2CCC[C@H]2C(=O)N[C@@H](Cc2cnc[nH]2)C(=O)N[C@@H](CCCCN)C(=O)N2C[C@H](O)C[C@H]2C(=O)N[C@@H](Cc2c[nH]c3ccccc23)C(=O)N[C@@H](CC(=O)O)C(=O)N[C@@H](Cc2c[nH]c3ccccc23)C(=O)N1C [Example 7126] ({CH2CO}-Y(Me)[NMeA][Dab]PHK[Hyp]WDW[NMeNle][NMeNle]ECG-NH2; thioether N-14)	5.00 to 6.00	
